This passage reports Ki results from BindingDB's records for doi:10.1021/acs.biochem.5b00822 (The University of Kansas Medical Center, 2015).

Structures are written as SMILES. Several values for one entry are separate records, joined by “and”; a condition that tells them apart may be missing. Identical values can stand only once.

Common to all, as to conditions: 25 °C
The target in test [1] is T1, Phosphoenolpyruvate carboxykinase, cytosolic [GTP] (Rattus norvegicus, UniProt P07379).
T1 sequence (P07379 whole entry): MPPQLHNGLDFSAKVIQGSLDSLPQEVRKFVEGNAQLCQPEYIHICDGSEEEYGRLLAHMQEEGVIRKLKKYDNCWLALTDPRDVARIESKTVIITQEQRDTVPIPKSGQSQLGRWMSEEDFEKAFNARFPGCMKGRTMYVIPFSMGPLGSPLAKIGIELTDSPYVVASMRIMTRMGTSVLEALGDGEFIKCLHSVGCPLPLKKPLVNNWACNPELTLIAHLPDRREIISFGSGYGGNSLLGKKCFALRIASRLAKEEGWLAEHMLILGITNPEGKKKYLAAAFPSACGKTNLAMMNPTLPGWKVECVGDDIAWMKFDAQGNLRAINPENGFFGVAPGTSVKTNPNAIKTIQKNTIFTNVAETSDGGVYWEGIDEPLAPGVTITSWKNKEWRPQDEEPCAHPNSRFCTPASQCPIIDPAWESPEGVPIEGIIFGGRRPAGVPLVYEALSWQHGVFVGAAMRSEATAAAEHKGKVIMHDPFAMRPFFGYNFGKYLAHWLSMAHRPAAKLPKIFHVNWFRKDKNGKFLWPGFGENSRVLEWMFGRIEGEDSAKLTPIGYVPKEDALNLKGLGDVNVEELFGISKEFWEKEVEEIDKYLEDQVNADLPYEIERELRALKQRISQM
Nature of the test: PEPCK Assay (OAA to PEP-allosteric). The method, then: (§1) Allosteric binding site. The activity of PEPCK in the direction from OAA to PEP was assayed with 50 mM HEPES (pH 7.5), 10 mM DTT, 4 mM MgCl2, 0.5 mM GTP, 1 mM ADP, 187.5 μM NADH, 45 units of LDH, 50 μg of PK, 0.2 mM MnCl2, and (∼1−2 μg) of PEPCK. The assay mixture was incubated for 5 min at 25 °C and the reaction started with the addition of OAA to a final concentration of 350 μM. A second reaction without PEPCK was run simultaneously to account for the spontaneous decarboxylation of OAA. Inhibition assays with MPA were conducted under both variable OAA and variable GTP concentrations. When the GTP concentration was varied, MgCl2 concentrations were also varied to keep a constant 4:1 metal:nucleotide ratio.

Test [2] deals with T1, Phosphoenolpyruvate carboxykinase, cytosolic [GTP]. Nature of the test: PEPCK Assay (OAA to PEP). The method, then:
as §1, with “OAA/PEP” for “Allosteric”

Test [3] has the same target. Nature of the test: PEPCK Assay (PEP to OAA-allosteric). The method, then:
(§2) Allosteric binding site. When the enzyme was assayed in the direction of PEP →OAA, the standard reaction mixture contained 50 mM HEPES (pH 7.5), 2mMMnCl2, 10mMDTT, 0.5mMGDP, 2mMPEP, 187.5 μM NADH, 50 mM KHCO3, and 11 units of MDH. The reaction proceeded at 25 °C and was started with the addition of PEPCK (∼1−2 μg). Mutants were assayed as previously described with the exception that ~30 μg of enzyme was used to initiate the assay.14 Inhibition assays with MPA were conducted with varying concentrations of PEP with a fixed GDP concentration of 500 or 25 μM. Inhibition assays against GDP were conducted at a fixed concentration of PEP of 2 or 5 mM.

Test [4] shares this target. Nature of the test: PEPCK Assay (PEP to OAA). The method, then: as §2, with “OAA/PEP” for “Allosteric”

Broadly, the Ki is a dissociation constant, usually derived from enzyme kinetics or from competition with a known ligand. For the compound `O=C(O)c1ncccc1S` [3-Mercaptopicolinic acid (MPA)], the Ki in test [1] is 121 µM; in test [2], 45 µM; in test [3] it was 180 µM and 83 µM; in test [4] it was 83 µM and 37 µM.
